Where two headings read alike, the source gives them in different places.
Tests used:
[1] = system: Stenotrophomonas maltophilia; assay: MIC/MBC of nanoemulsions against gram-negative isolates (CLSI, alamar blue); type: cell-based; settings: Stenotrophomonas maltophilia (n = 5); nanoemulsions in the presence of 5 mM EDTA
Acinetobacter baumannii [2] = assay: as above; type: cell-based; settings: Acinetobacter baumannii (n = 5)
Klebsiella pneumoniae = assay: as above; type: cell-based; settings: Klebsiella pneumoniae (n = 5)
Acinetobacter baumannii [3] = assay: MIC/MBC against clinical isolates (CLSI, alamar blue)
Pseudomonas aeruginosa [4] = assay: MIC/MBC against CF isolates (CLSI, alamar blue); settings: Pseudomonas aeruginosa
Proteus mirabilis = assay: MIC/MBC of nanoemulsions against gram-negative isolates (CLSI, alamar blue); type: cell-based; settings: Proteus mirabilis (n = 5)
Pseudomonas aeruginosa [5] = assay: as above; type: cell-based; settings: Pseudomonas aeruginosa (n = 5)
Burkholderia cepacia = assay: as above; type: cell-based; settings: Burkholderia cepacia (n = 5), nanoemulsions in the presence of 5 mM EDTA
[6] = system: Stenotrophomonas maltophilia; assay: MIC/MBC against CF isolates (CLSI, alamar blue); settings: for MBC / MIC: Stenotrophomonas maltophilia
Burkholderia cenocepacia = assay: MIC/MBC against CF isolates (CLSI, alamar blue); settings: for MBC / MIC: Burkholderia cenocepacia
Escherichia coli = assay: MIC/MBC of nanoemulsions against gram-negative isolates (CLSI, alamar blue); type: cell-based; settings: Escherichia coli (n = 5)
[7] = nanoemulsions in the presence of 5 mM EDTA
[8] = nanoemulsions in the presence of 5 mM EDTA, in µg/mL
[9] = Acinetobacter baumannii, Acinetobacter isolate NB31
[10] = Acinetobacter baumannii, Acinetobacter isolate NB32
[11] = Acinetobacter baumannii, Acinetobacter isolate NB33
[12] = Acinetobacter baumannii, Acinetobacter isolate NB34
[13] = Acinetobacter baumannii, Acinetobacter isolate NB35
[14] = Acinetobacter baumannii, Acinetobacter isolate NB36
[15] = Acinetobacter baumannii, Acinetobacter isolate NB37
[16] = Acinetobacter baumannii, Acinetobacter isolate NB38
[17] = Acinetobacter baumannii, Acinetobacter isolate NB39
[18] = Acinetobacter baumannii, Acinetobacter isolate NB40
[19] = CF Stenotrophomonas isolate NB41
[20] = CF Stenotrophomonas isolate NB42
[21] = CF Stenotrophomonas isolate NB43
[22] = CF Stenotrophomonas isolate NB44
[23] = CF Stenotrophomonas isolate NB45
[24] = CF Stenotrophomonas isolate Steno 1
[25] = CF Stenotrophomonas isolate Steno 2
[26] = CF Stenotrophomonas isolate Steno 3
[27] = CF Stenotrophomonas isolate Steno 4
[28] = CF Stenotrophomonas isolate Steno 6
[29] = CF Stenotrophomonas isolate Steno 8
[30] = Stenotrophomonas, each drug alone

NC[C@H]1O[C@H](O[C@H]2[C@H](O)[C@@H](O[C@H]3O[C@H](CO)[C@@H](O)[C@H](N)[C@H]3O)[C@H](N)C[C@@H]2N)[C@H](N)C[C@@H]1O [Tobramycin]
100.0%: % susceptible (Proteus mirabilis) | % susceptible (Pseudomonas aeruginosa [5])
> 16 µg/mL: MIC50 [1] | MBC (Pseudomonas aeruginosa [4]; CF Pseudomonas isolate NB7) | MBC (Pseudomonas aeruginosa [4]; read-out: MBC 90, 20 CF Pseudomonas isolates) | MBC (Pseudomonas aeruginosa [4]; read-out: MBC 90, second MBC 90 line of the summary, Stenotrophomonas, values equal those of the CF Pseudomonas isolates) | MIC50 (Burkholderia cepacia)
16 µg/mL: MIC90 (Acinetobacter baumannii [3]; Acinetobacter baumannii) | MIC (Acinetobacter baumannii [3]; [12]) | MBC (Acinetobacter baumannii [3]; [13]) | MBC (Acinetobacter baumannii [3]; [16]) | MIC90 (Acinetobacter baumannii [3]; Acinetobacter, each drug alone) | MIC90 (Pseudomonas aeruginosa [4]) | MBC (Pseudomonas aeruginosa [4]; CF Pseudomonas isolate NB1) | MBC (Pseudomonas aeruginosa [4]; CF Pseudomonas isolate NB16) | MIC (Pseudomonas aeruginosa [4]; CF Pseudomonas isolate NB17) | MIC (Pseudomonas aeruginosa [4]; CF Pseudomonas isolate NB18) | MBC (Pseudomonas aeruginosa [4]; CF Pseudomonas isolate NB19) | MIC [6, 28]
32 µg/mL: MIC (Pseudomonas aeruginosa [4]; CF Pseudomonas isolate NB14) | MBC (Pseudomonas aeruginosa [4]; CF Pseudomonas isolate NB17) | MIC [6, 20] | MBC [6, 28] | MIC (Burkholderia cenocepacia; CF Burkholderia isolate NB21) | MBC (Burkholderia cenocepacia; CF Burkholderia isolate NB30) | MIC (Burkholderia cenocepacia; CF Burkholderia isolate NB30)
0.0%: % resistant (Proteus mirabilis) | % resistant (Pseudomonas aeruginosa [5])
0.5 µg/mL: MIC50 (Acinetobacter baumannii [2]; [7]) | MBC (Acinetobacter baumannii [3]; [14]) | MIC (Acinetobacter baumannii [3]; [14]) | MIC (Acinetobacter baumannii [3]; [15]) | MIC (Pseudomonas aeruginosa [4]; CF Pseudomonas isolate NB3) | MIC (Pseudomonas aeruginosa [4]; CF Pseudomonas isolate NB4) | MIC (Pseudomonas aeruginosa [4]; CF Pseudomonas isolate NB5) | MIC (Pseudomonas aeruginosa [4]; CF Pseudomonas isolate NB6) | MIC (Pseudomonas aeruginosa [4]; CF Pseudomonas isolate NB10) | MIC (Pseudomonas aeruginosa [4]; CF Pseudomonas isolate NB12) | MIC (Pseudomonas aeruginosa [4]; CF Pseudomonas isolate NB15) | MIC (Pseudomonas aeruginosa [4]; CF Pseudomonas isolate NB20) | MIC50 (Pseudomonas aeruginosa [5]; [7]) | MIC50 (Escherichia coli; [7])
>16: MIC Range (Burkholderia cepacia; in µg/mL)
0.25-1: MIC Range (Proteus mirabilis; [8]) | MIC Range (Pseudomonas aeruginosa [5]; [8])
1 µg/mL: MIC50 (Acinetobacter baumannii [3]; Acinetobacter baumannii) | MBC (Acinetobacter baumannii [3]; [9]) | MIC (Acinetobacter baumannii [3]; [9]) | MIC (Acinetobacter baumannii [3]; [10]) | MIC (Acinetobacter baumannii [3]; [16]) | MIC50 (Acinetobacter baumannii [3]; Acinetobacter, each drug alone) | MIC50 (Pseudomonas aeruginosa [4]) | MIC (Pseudomonas aeruginosa [4]; CF Pseudomonas isolate NB1) | MIC (Pseudomonas aeruginosa [4]; CF Pseudomonas isolate NB7) | MIC (Pseudomonas aeruginosa [4]; CF Pseudomonas isolate NB8) | MIC (Pseudomonas aeruginosa [4]; CF Pseudomonas isolate NB9) | MIC (Pseudomonas aeruginosa [4]; CF Pseudomonas isolate NB13) | MIC50 (Proteus mirabilis; [7]) | MIC (Burkholderia cenocepacia; CF Burkholderia isolate NB28b)
20.0%: % resistant (Acinetobacter baumannii [2]) | % resistant (Klebsiella pneumoniae) | % resistant (Escherichia coli)
> 32 µg/mL: MBC (Acinetobacter baumannii [3]; [12]) | MBC (Acinetobacter baumannii [3]; [18]) | MIC (Acinetobacter baumannii [3]; [18]) | MBC (Pseudomonas aeruginosa [4]; CF Pseudomonas isolate NB14) | MBC (Pseudomonas aeruginosa [4]; CF Pseudomonas isolate NB18) | MBC [6, 19] | MIC [6, 19] | MBC [6, 20] | MBC [6, 21] | MIC [6, 21] | MBC [6, 22] | MIC [6, 22] | MBC [6, 23] | MIC [6, 23] | MBC [6, 24] | MIC [6, 24] | MBC [6, 25] | MIC [6, 25] | MBC [6, 26] | MIC [6, 26] | MBC [6, 27] | MIC [6, 27] | MBC [6, 29] | MIC [6, 29] | MBC (Burkholderia cenocepacia; CF Burkholderia isolate NB21) | MBC (Burkholderia cenocepacia; CF Burkholderia isolate NB22) | MIC (Burkholderia cenocepacia; CF Burkholderia isolate NB22) | MBC (Burkholderia cenocepacia; CF Burkholderia isolate NB23) | MIC (Burkholderia cenocepacia; CF Burkholderia isolate NB23) | MBC (Burkholderia cenocepacia; CF Burkholderia isolate NB24) | MIC (Burkholderia cenocepacia; CF Burkholderia isolate NB24) | MBC (Burkholderia cenocepacia; CF Burkholderia isolate NB25) | MIC (Burkholderia cenocepacia; CF Burkholderia isolate NB25) | MBC (Burkholderia cenocepacia; CF Burkholderia isolate NB26) | MIC (Burkholderia cenocepacia; CF Burkholderia isolate NB26) | MBC (Burkholderia cenocepacia; CF Burkholderia isolate NB27) | MIC (Burkholderia cenocepacia; CF Burkholderia isolate NB27) | MBC (Burkholderia cenocepacia; CF Burkholderia isolate NB29) | MIC (Burkholderia cenocepacia; CF Burkholderia isolate NB29)
4 µg/mL: MBC (Acinetobacter baumannii [3]; [10]) | MBC (Acinetobacter baumannii [3]; [17]) | MBC (Acinetobacter baumannii [3]; Acinetobacter baumannii, read-out: MBC 50, 10 Acinetobacter isolates) | MBC (Acinetobacter baumannii [3]; Acinetobacter baumannii, read-out: MBC 50, Acinetobacter, each drug alone) | MBC (Pseudomonas aeruginosa [4]; CF Pseudomonas isolate NB3) | MBC (Pseudomonas aeruginosa [4]; CF Pseudomonas isolate NB4) | MBC (Pseudomonas aeruginosa [4]; CF Pseudomonas isolate NB5) | MBC (Pseudomonas aeruginosa [4]; CF Pseudomonas isolate NB6) | MBC (Pseudomonas aeruginosa [4]; CF Pseudomonas isolate NB10) | MBC (Pseudomonas aeruginosa [4]; CF Pseudomonas isolate NB11) | MBC (Pseudomonas aeruginosa [4]; CF Pseudomonas isolate NB13) | MBC (Burkholderia cenocepacia; CF Burkholderia isolate NB28b)
8 µg/mL: MBC (Acinetobacter baumannii [3]; [11]) | MBC (Pseudomonas aeruginosa [4]; CF Pseudomonas isolate NB8) | MBC (Pseudomonas aeruginosa [4]; CF Pseudomonas isolate NB9) | MBC (Pseudomonas aeruginosa [4]; CF Pseudomonas isolate NB12) | MBC (Pseudomonas aeruginosa [4]; CF Pseudomonas isolate NB15) | MBC (Pseudomonas aeruginosa [4]; CF Pseudomonas isolate NB20) | MBC (Pseudomonas aeruginosa [4]; read-out: MBC 50, 20 CF Pseudomonas isolates) | MBC (Pseudomonas aeruginosa [4]; read-out: MBC 50, second MBC 50 line of the summary, Stenotrophomonas, values equal those of the CF Pseudomonas isolates)
80.0%: % susceptible (Acinetobacter baumannii [2]) | % susceptible (Klebsiella pneumoniae) | % susceptible (Escherichia coli)
0.25 µg/mL: MIC50 (Klebsiella pneumoniae; [7]) | MIC (Pseudomonas aeruginosa [4]; CF Pseudomonas isolate NB2)
2 µg/mL: MIC (Acinetobacter baumannii [3]; [11]) | MIC (Acinetobacter baumannii [3]; [13]) | MBC (Acinetobacter baumannii [3]; [15]) | MIC (Acinetobacter baumannii [3]; [17]) | MBC (Pseudomonas aeruginosa [4]; CF Pseudomonas isolate NB2) | MIC (Pseudomonas aeruginosa [4]; CF Pseudomonas isolate NB11) | MIC (Pseudomonas aeruginosa [4]; CF Pseudomonas isolate NB16) | MIC (Pseudomonas aeruginosa [4]; CF Pseudomonas isolate NB19)
0.25-16: MIC Range (Klebsiella pneumoniae; [8]) | MIC Range (Escherichia coli; [8])
>32 µg/mL: MBC 90 (Acinetobacter baumannii [3]; Acinetobacter, each drug alone) | MBC 50 [6, 30] | MBC 90 [6, 30] | MIC50 [6, 30] | MIC90 [6, 30] | MBC 50 (Burkholderia cenocepacia; Burkholderia, each drug alone) | MBC 90 (Burkholderia cenocepacia; Burkholderia, each drug alone) | MIC90 (Burkholderia cenocepacia; Burkholderia, each drug alone)

— patent US20100092526A1, “NANOEMULSION THERAPEUTIC COMPOSITIONS AND METHODS OF USING THE SAME” (NanoBio Corporation, priority 2008, published 2010)
